This passage reports inhibition, Drug uptake and IC50 results from ChEMBL document CHEMBL2434845, “Design, synthesis and efficacy of novel G protein-coupled receptor kinase 2 inhibitors” (Eur J Med Chem, 2013).

In data set [1] the target is G protein-coupled receptor kinase 5 (Homo sapiens) (UniProt P34947). The data set is described as follows: Inhibition of GRK-5 (unknown origin)-mediated phosphorylation of rhodopsin in bovine-rod outer segment membranes incubated under white light condition for 15 mins measured after 30 mins by autoradiography in presence of [gamma32P]-ATP. Also on record: concentration or dose not given beside the values. Type of data set: cell membranes.
Sequence of G protein-coupled receptor kinase 5 (Homo sapiens) (P34947 whole entry, looked up): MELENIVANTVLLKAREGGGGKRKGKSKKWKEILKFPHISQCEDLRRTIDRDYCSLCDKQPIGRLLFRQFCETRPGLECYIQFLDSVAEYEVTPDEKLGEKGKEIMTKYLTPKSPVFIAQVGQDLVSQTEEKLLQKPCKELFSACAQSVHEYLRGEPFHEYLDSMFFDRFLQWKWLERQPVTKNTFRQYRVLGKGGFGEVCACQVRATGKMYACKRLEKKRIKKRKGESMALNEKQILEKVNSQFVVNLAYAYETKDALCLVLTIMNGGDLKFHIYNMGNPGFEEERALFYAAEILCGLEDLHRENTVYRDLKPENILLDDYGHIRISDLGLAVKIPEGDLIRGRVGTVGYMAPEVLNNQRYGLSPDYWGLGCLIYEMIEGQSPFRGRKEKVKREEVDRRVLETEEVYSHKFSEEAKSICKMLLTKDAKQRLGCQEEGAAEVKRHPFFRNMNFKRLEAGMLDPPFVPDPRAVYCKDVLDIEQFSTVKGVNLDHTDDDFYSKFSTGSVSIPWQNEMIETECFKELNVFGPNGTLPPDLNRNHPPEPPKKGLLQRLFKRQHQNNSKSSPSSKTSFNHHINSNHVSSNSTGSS

Data set [2] concerns the target T1, Beta-adrenergic receptor kinase 1 (Homo sapiens) (UniProt P25098).
T1 sequence (whole entry): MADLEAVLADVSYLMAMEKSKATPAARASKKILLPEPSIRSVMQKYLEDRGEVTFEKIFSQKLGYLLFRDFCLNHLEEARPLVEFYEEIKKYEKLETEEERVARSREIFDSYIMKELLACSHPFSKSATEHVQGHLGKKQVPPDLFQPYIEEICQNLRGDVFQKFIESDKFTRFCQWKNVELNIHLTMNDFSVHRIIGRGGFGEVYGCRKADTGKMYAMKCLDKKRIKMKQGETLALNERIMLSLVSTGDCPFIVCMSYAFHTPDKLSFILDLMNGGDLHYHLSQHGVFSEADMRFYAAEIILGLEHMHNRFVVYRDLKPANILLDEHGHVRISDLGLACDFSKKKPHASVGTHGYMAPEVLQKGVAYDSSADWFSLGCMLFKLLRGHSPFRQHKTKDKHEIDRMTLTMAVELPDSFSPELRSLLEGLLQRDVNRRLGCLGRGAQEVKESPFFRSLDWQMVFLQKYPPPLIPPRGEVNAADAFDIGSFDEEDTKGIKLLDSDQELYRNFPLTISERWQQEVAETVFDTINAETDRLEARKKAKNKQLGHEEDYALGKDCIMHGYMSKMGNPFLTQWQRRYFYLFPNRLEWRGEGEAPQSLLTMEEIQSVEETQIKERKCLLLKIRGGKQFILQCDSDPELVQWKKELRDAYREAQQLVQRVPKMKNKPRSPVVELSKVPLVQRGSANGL
The data set is described as follows: Inhibition of GRK2 in HEK293 cells overexpressing human beta2 adrenergic receptor assessed as effect on cAMP production at 1 uM after 1 hr by enzyme immunoassay. Type of data set: cell-based. A general note: Cyclic AMP is a second messenger, typically raised through Gs and lowered through Gi signalling.

The target in data set [3] is T1, Beta-adrenergic receptor kinase 1 (Homo sapiens). The data set is described as follows: Inhibition of GRK2 in HEK293 cells overexpressing human beta2 adrenergic receptor assessed as effect on isoproterenol-induced cAMP production at 1 uM preincubated for 1 hr prior to isoproterenol-stimulation measured after 15 mins by enzyme immunoassay. The class given is cell-based.

For data set [4] the target is unchanged. The data set is described as follows: (§1) Inhibition of GRK-2 (unknown origin)-mediated phosphorylation of rhodopsin in bovine-rod outer segment membranes incubated under white light condition for 15 mins measured after 30 mins by autoradiography in presence of [gamma32P]-ATP. The class given is cell membranes.
The target is the same in data set [5]. The data set is described as follows: Inhibition of GRK2 in HEK293 cells overexpressing human beta2 adrenergic receptor assessed as increase in beta2 adrenergic receptor density at 1 uM after 1 hr by gamma counting analysis in presence of [125I]cyanopindolol. Type of data set: cell-based.
Data set [6] shares this target. The data set is described as follows: Inhibition of GRK-2 (unknown origin)-mediated phosphorylation of rhodopsin in bovine-rod outer segment membranes at 1 uM incubated under white light condition for 15 mins measured after 30 mins by autoradiography in presence of [gamma32P]-ATP. Type of data set: cell membranes.
Data set [7] relates to HEK293. The data set is described as follows: Cellular uptake in HEK293 cells overexpressing human beta2 adrenergic receptor at 1 uM after 1 hr by confocal microscopic analysis. Type of data set: ADME, cell-based. The note with it: hek293, 1 h.
Data set [8] has as its system HEK293. The data set is described as follows: Cellular uptake in HEK293 cells overexpressing human beta2 adrenergic receptor at 1 to 10 uM after 1 hr by fluorescence assay. The class given is ADME, cell-based. The note with it: hek293, 1 h.
The target of data set [9] is T2, Beta-adrenergic receptor kinase 1 (Homo sapiens, UniProt P25098).
T2 sequence (P25098 whole entry): T1 sequence (whole entry)
The data set is described as §1. Type of data set: cell membranes.

Calls of active or inactive are those of the source. The calls are words filed in the database; no cut-off is given here. Peptide text beside a SMILES is read from it.

For orientation: inhibition means the percentage by which the read-out fell short of the control. For the molecule `CC[C@H](C)[C@H](NC(=O)[C@H](CO)NC(=O)[C@H](Cc1cnc[nH]1)NC(=O)[C@@H](CCCNC(=N)N)NC(=O)[C@H](CCCNC(=N)N)NC(=O)[C@H](CC(C)C)NC(=O)[C@H](CC(C)C)NC(=O)CN)C(=O)O`, the inhibition in data set [1] was less than 5%; in [4], “Dose-dependent effect”; in data set [6], 49.6%. Also, the inhibition result in [2], in [3] and in [5] was “Active” throughout.
In the case of `CC(C)C[C@H](NC(=O)CN)C(=O)N[C@@H](CC(C)C)C(=O)N[C@@H](CCCNC(=N)N)C(=O)N[C@H](CCCNC(=N)N)C(=O)N[C@@H](Cc1cnc[nH]1)C(=O)N[C@@H](CO)C(=O)O`, the figures for the inhibition in data set [1] and in [6] were less than 5% and 47.6%, respectively.
The corresponding values for `CC[C@H](C)[C@@H]1NC(=O)[C@H](CO)NC(=O)[C@H](Cc2cnc[nH]2)NC(=O)[C@@H](CCCNC(=N)N)NC(=O)[C@H](CCCNC(=N)N)NC(=O)[C@H](CC(C)C)NC(=O)[C@H](CC(C)C)NC(=O)CNC1=O` are less than 5% and 37.2%.
The corresponding values for `CC(C)C[C@@H]1NC(=O)[C@H](CC(C)C)NC(=O)[C@H](CCCCN)NC(=O)[C@H](CC(=O)O)NC(=O)[C@H](Cc2cnc[nH]2)NC(=O)CNC(=O)[C@H](CCCNC(=N)N)NC1=O` (cyclo(DKLLRGH)) are less than 5% and 47.2%.
As for `CC(C)C[C@@H]1NC(=O)CNC(=O)[C@H](CO)NC(=O)[C@H](Cc2cnc[nH]2)NC(=O)[C@@H](CCCNC(=N)N)NC(=O)[C@H](CCCNC(=N)N)NC(=O)[C@H](CC(C)C)NC1=O`, the figures for the inhibition in [1] and in data set [6] were less than 5% and 47.8%, respectively.
Regarding `CC(C)C[C@@H]1NC(=O)[C@H](CCCCN)NC(=O)[C@H](CC(=O)O)NC(=O)[C@H](Cc2cnc[nH]2)NC(=O)[C@@H](CCCNC(=N)N)NC(=O)[C@H](CCCNC(=N)N)NC(=O)[C@H](CC(C)C)NC1=O`, the inhibition was less than 5% in data set [1] and 36.3% in data set [6].
As a reminder, the IC50 is the point on the concentration scale where inhibition reaches its midpoint. Regarding `CC[C@H](C)[C@H](NC(=O)[C@H](CO)NC(=O)[C@H](Cc1cnc[nH]1)NC(=O)[C@@H](CCCN=C(N)N)NC(=O)[C@H](CCCN=C(N)N)NC(=O)[C@H](CC(C)C)NC(=O)[C@H](CC(C)C)NC(=O)CN)C(=O)O`, the Drug uptake result in the data set with HEK293 [7] and in the data set with HEK293 [8] was “Active” in each case. The 50% inhibitory concentration (IC50) in data set [9] was 340 nM.
